{"source": "patent US10464885B2", "about": "“Compound, preparation method therefor, applications thereof, corresponding targeted drug delivery system, chemotherapy drugs, and treatment method” (BEIJING XINDE RUNXING TECHNOLOGY CO., LTD., priority 2015, dated 2019)", "key": {"human body": {"system": "human body", "settings": "oral treatment of taeniasis, adults and children; cited from earlier work"}, "[1]": {"system": "small cell lung cancer cell line H446", "experiment": "H446 cell colony in vitro formation assay (crystal violet staining)", "type": "cell-based", "settings": "Day 7 (one week)", "protocol": "Test cell line: small cell lung cancer cell line H446 (purchased from Shanghai Beinuo Life Science Co., Ltd.) Experimental method: H446 cell colony in vitro formation assay\nDetection method: crystal violet staining\nOn Day 1, a 6-well plate (Transwell, batch No. 3428, manufactured by Corning Incorporated) was adopted as cell plate, with 2000 cells/well per plate.\nOn Day 2, after microscopic observation of cell adherence, a 1 ml medium containing the drug was loaded to each well, with settings of 2 wells in one group and totally three groups: A. 6 μmol/L, a. 6 μmol/L (multiple wells); B. blank (no drug); b. blank (no drug, multiple wells); C. 12 μmol/L; c. 12 μmol/L (multiple wells); the drugs were changed every three days, and the observation was performed every day.\nOn Day 7, cell colonies were visually observed at the bottom of the vessel, and the cells were collected by: discarding the culture medium in each well, washing cells with phosphate buffered saline (PBS) twice for 5 minutes each time, adding 500 μl crystal violet stain solution to each well for staining at room temperature for 15 minutes, washing cells with PBS twice for 5 minutes each time, and finally detecting on a WB analyzer."}, "[2]": {"experiment": "Solubility in solvents (experimental results)", "type": "physicochemical", "text": "The molecular weight is 367.9967."}, "Jurkat cell line": {"system": "Jurkat cell line", "experiment": "Cell viability CCK-8 assay, Jurkat cell suspension", "type": "cell-based", "settings": "six concentrations 0.041 μM-10 μM; 24 h, 48 h and 72 h; OD at 450 nm", "protocol": "Test cell line: Jurkat cell line (purchased from Nanjing Cobioer Co., Ltd.)\nExperimental method: Cell viability CCK-8 assay\nExperimental design: within a dose concentration range of 0.041 μM-10 μM, six concentrations were designed with three-fold increments, including 0.041 μM, 0.123 μM, 0.367 μM, 1.1 μM, 3.3 μM and 10 μM.\n1. A Jurkat cell suspension was prepared and inoculated to the 96-well plate at an amount of 5×10^4/well.\n2. The Jurkat cell suspension was directly added to different concentrations of NIC-1 and control drug N-(2-chloro-4-nitrophenyl)-5-chloro-2-hydroxybenzamide, followed by culture in an incubator at 37° C. for 24 h, 48 h and 72 h respectively; CCK8 was measured by adding CCK8 to each well at an amount of 10 μl/well, culturing for 2-3 h and detecting a value of OD at 450 nm using a microplate reader.\nExperimental results: the outcomes of the synthesized compound NIC-1 of the present invention and the control drug N-(2-chloro-4-nitrophenyl)-5-chloro-2-hydroxybenzamide in the six concentrations were compared with those of the blank control, respectively. […]"}, "[3]": {"system": "small cell lung cancer cell line H446", "experiment": "Cell viability CCK-8 assay, H446", "type": "cell-based", "settings": "48 h after dosing", "text": "Test cell line: small cell lung cancer cell line H446 (purchased from Shanghai Beinuo Life Science Co., Ltd.)\nCell viability CCK-8 assay: CCK8 assay, with a reagent containing 2-(2-methoxy-4-nitrophenyl)-3-(4-nitrophenyl)-5-(2,4-disulfophenyl)-2H-tetrazole monosodium salt (WST-8), is reduced by dehydrogenase in the cells in the presence of electron carrier 1-methoxy-5-methylphenazinium […] (1-Methoxy PMS), to obtain a highly water-soluble yellow formazan product (Formazan), and the count of viable cells is positively associated with the amount of obtained formazan product. Thus, CCK8 assay can be directly used for the evaluation of cell proliferation and toxicity analysis.\nEach well of 96-well plate was loaded at an amount of 7×10^3 cells/well. After 24 h plating, 200 μl of solution was supplied to each well. NIC-1, vp-16 and blank were applied to the plate in four concentrations: concentration 1=1.528 μm, concentration 2=1.528 μm*2, concentration 3=1.528 μm*5, concentration 4=1.528 μm*10, wand each group was made in triplicate.\nThe plate was harvested 48 h after dosing, by:\ndiscarding 200 μl solution in each well, adding 100 μl solution (90 μl medium+10 μl CCK8 stock solution) to each well, placing the plate in a 37° C. incubator for about 1 hour, and measuring a value of OD at 450 nm using a microplate reader.\nThe small cell lung cancer cell line H446 was treated with NIC-1 and etoposide (vp16) for […] respectively, and then the cell viability was detected by CCK-8 assay.\nThe synthesized compound NIC-1 of the present invention in the concentrations of 1.528 μM, 3.056 μM, 7.64 μM and 15.28 μM was compared with etoposide (vp16) and blank control, respectively. As shown in FIGS. 5-8, a chart of comparison of the inhibitory effect on the cell viability of small cell lung cancer cell line H446 was shown in each figure, wherein the horizontal axis represented the blank control, NIC-1, vp-16 and corresponding dosage concentrations, and the vertical axis represented measured OD values."}, "[4]": {"system": "patients with relapsed SCLC", "settings": "cited from earlier work"}, "[5]": {"settings": "oral, Day 1, 8 and 15 of 28 days"}}, "data": [{"smiles": "O=C(Nc1ccc([N+](=O)[O-])cc1Cl)c1cc(Cl)ccc1O", "note": "[N-(2-chloro-4-nitrophenyl)-5-chloro-2-hydroxybenzamide]", "values": [{"measurement": "side effects", "setting": "human body", "result": "occasional side effects manifested by fatigue, dizziness, chest tightness, gastrointestinal disorders, fever and itching"}]}, {"smiles": "CC(=O)Oc1ccc(Cl)cc1C(=O)Nc1ccc([N+](=O)[O-])cc1Cl", "note": "[NIC-1, N-(2-chloro-4-nitrophenyl)-5-chloro-2-acetoxybenzamide]", "values": [{"measurement": "inhibition of growth of H446 cells (colony formation)", "setting": "[1]; 6 μmol/L", "result": "partially inhibited"}, {"measurement": "inhibition of growth of H446 cells (colony formation)", "setting": "[1]; 12 μmol/L", "result": "completely inhibited"}, {"measurement": "solubility in dichloromethane", "setting": "[2]; dichloromethane", "result": "soluble"}, {"measurement": "solubility in ethanol", "setting": "[2]; ethanol", "result": "slightly soluble"}, {"measurement": "solubility in ether", "setting": "[2]; ether", "result": "slightly soluble"}, {"measurement": "solubility in water", "setting": "[2]; water", "result": "insoluble"}, {"measurement": "inhibitory effect on cell viability of Jurkat cell line compared with control drug", "setting": "Jurkat cell line", "result": "superior to the control drug"}, {"measurement": "inhibitory effect on cell viability of H446 compared with etoposide (vp16)", "setting": "[3]; 1.528 μM", "result": "slightly better than etoposide (vp16)"}, {"measurement": "inhibitory effect on cell viability of H446 compared with etoposide (vp16)", "setting": "[3]; 3.06 μM", "result": "significantly better than etoposide (vp16)"}, {"measurement": "inhibitory effect on cell viability of H446 compared with etoposide (vp16)", "setting": "[3]; 7.64 μM", "result": "significantly better than etoposide (vp16)"}, {"measurement": "inhibitory effect on cell viability of H446 compared with etoposide (vp16)", "setting": "[3]; 15.28 μM", "result": "significantly better than etoposide (vp16)"}]}, {"smiles": "CC[C@@]1(O)C(=O)OCc2c1cc1n(c2=O)Cc2cc3c(CN(C)C)c(O)ccc3nc2-1", "note": "[topotecan]", "values": [{"measurement": "dose at which dose-limiting toxicity (DLT) appeared", "setting": "[4]; [5]", "result": 4.5, "unit": "mg/m^2"}, {"measurement": "maximum tolerated dose (MTD)", "setting": "[4]; [5]", "result": 4, "unit": "mg/m^2"}, {"measurement": "II degree thrombocytopenia", "setting": "[4]; weekly oral", "result": 16.7, "unit": "%"}, {"measurement": "II-III degree anemia", "setting": "[4]; weekly oral", "result": 33.3, "unit": "%"}, {"measurement": "II-III degree fever", "setting": "[4]; weekly oral", "result": 44.4, "unit": "%"}, {"measurement": "II-III degree neutropenia", "setting": "[4]; weekly oral", "result": 27.8, "unit": "%"}, {"measurement": "median progression-free survival (PFS)", "setting": "[4]; weekly oral", "result": 2.3, "unit": "months"}, {"measurement": "median survival (OS)", "setting": "[4]; weekly oral", "result": 5.1, "unit": "months"}]}]}
